Measured values: patent US20250114367A1, “METHOD OF TREATING HAIR LOSS DISORDERS” (Sun Pharmaceutical Industries, Inc., priority 2023, published 2025)

How the values were obtained:
Assay type in all cases: in vivo, human
[1] = tested on: adult subjects with moderate to severe AA; experiment: Phase III trial: Severity of Alopecia Tool (SALT) score; settings: for percentages of participants (responders) stratified by duration of current AA episode: week 24
Experimental: The SALT score is calculated for a patient/subject by measuring the percentage of hair loss in each of the 4 areas of the scalp and adding the total to achieve a composite score (referred to herein as an absolute SALT score). Hair regrowth is reflected by a decrease in the SALT score.
(§1) Approximately 440 adult male and female subjects 18 to 65 years of age, inclusive, with moderate to severe AA participated in the study. Subjects with definitive diagnosis of AA, and at least 50% hair loss, as defined by a SALT score ≥50, who met all of the inclusion criteria and none of the exclusion criteria participated in the study.
(§2) The Screening Period lasted up to 28 days prior to initiation of study drug. […] Randomization was stratified by scalp hair loss into 1 of the following 2 categories: 1) partial scalp hair loss (SALT ≥50 and <95), 2) complete or near complete scalp hair loss (SALT ≥95).
Assessment of treatment response using SALT for efficacy occurred at 4, 8, 12, 16, 20 and 24 weeks.
The primary efficacy endpoint was the percentage of subjects achieving an absolute SALT score of ≤20.
(§3) Additional secondary efficacy endpoints included the following: • Relative change in SALT scores from baseline at Weeks 4, 8, 12, 16, 20, and 24. • Percentage of responders (defined as “much improved” or “very much improved”) using the Clinical Global Impression of Improvement (CGI-I) at Weeks 12, 16, 20, and 24. • Percentage of responders (defined as “much improved” or “very much improved”) using the Patient Global Impression of Improvement (PGI-I) at Weeks 12, 16, 20, and 24. • Change from baseline in the Clinical Global Impression of Severity (CGI-S) at Weeks 12, 16, 20, and 24. • Change from baseline in the Patient Global Impression of Severity (PGI-S) at Weeks 12, 16, 20, and 24. • Change from baseline on the Brigham Eyebrow Tool for Alopecia (BETA) score at Weeks 12 and 24. • Change from baseline on the Brigham Eyelash Tool for Alopecia (BELA) score at Weeks 12 and 24. • Percentage of subjects achieving at least a 75% relative reduction in SALT score from baseline at Weeks 12 and 24. • Percentage of subjects achieving at least a 90% relative reduction in SALT score from baseline at Weeks 12 and 24. • Percentage of responders (defined as “satisfied” or “very satisfied”) on the SPRO scale at Weeks 12, 16, and 20. • Change from baseline in the SPRO scale at Weeks 12, 16, 20, and 24. • Percentage of subjects achieving a ≥2-point change from baseline in the SPRO scale at Weeks 12, 16, 20, and 24. • Change from baseline on the individual items of the Hair Quality Patient Reported Outcome (QPRO) scale at Weeks 12, 16, 20, and 24. • Change from baseline in the depression scale of the Hospital Anxiety and Depression Scale (HADS) at Week 24. • Change from baseline in the anxiety scale of the HADS at Week 24. • Percentage of subjects achieving an absolute SALT score of ≤20 at Week 4. • Percentage of subjects achieving an absolute SALT score of ≤10 at Week 24
• Clinical presentation compatible with alopecia areata with a current episode lasting at least 6 months and not exceeding 10 years at the time of Screening. Total disease duration greater than 10 years is permitted. • At least 50% scalp hair loss, as defined by a Severity of Alopecia Tool (SALT) score ≥50, at Screening and Baseline. • Willing to comply with the study visits and requirements of the study protocol.
This will include but is not limited to: • a. Platelets ≤100×109/L or ≥600×109/L • b. Absolute neutrophil count ≤1.5×109/L • c.

[2] = tested on: adult subjects with moderate to severe AA; experiment: Phase III trial: Patient Global Impression of Severity (PGI-S)
Experimental: The PGI-S was assessed by the subject and considered the severity of his/her alopecia areata at the time of assessment. The subject selected 1 of 7 numeric choices representing “Among the most extreme hair loss” to “Normal, no hair loss.” The definitions of the numeric choices is as follows: 1=normal, no hair loss; 2=borderline hair loss; 3=mild hair loss; 4=moderately hair loss; 5=marked hair loss; 6=severe hair loss; 7=among the most extreme hair loss.
as §1, with “A Phase III trial was conducted to assess the efficacy and safety of CTP-543 in adult subjects with moderate to severe AA. Approximately” for “Approximately”
as §2, §3
A decrease from baseline indicates improvement (impression is decreased severity). The LS mean treatment group difference was in favor of the CTP-543 groups over the placebo group at all timepoints evaluated. […] Detailed data for each time point are described below.

[3] = tested on: adult subjects with moderate to severe AA; experiment: Phase III trial: Brigham Eyelash Tool for Alopecia (BELA)
Experimental: The BELA is a clinician-rated scale developed by dermatologists at Brigham and Women's Hospital that assesses the total eyelash hair present Manjaly, P. et al., Development and validation of the Brigham Eyelash Tool for Alopecia (BELA): A measure of eyelash alopecia areata, J Am Acad Dermatol (2021) 1-2. The BELA is calculated based on grade values (range 0 to 3) and distribution. The BELA score is the sum of the individual scores for the left and right eyes (range 0 (absent) to 6). The same expert panel of certified raters at Brigham and Women's Hospital who performed the BETA assessment also performed central readings based on photographs of the eyelashes and determined a score for each subject with eyelash involvement following each visit where an assessment of eyelash hair presence was assessed. The BELA was performed at baseline, Week 12, and Week 24. If a subject was unable to attend an in-person clinic visit due to COVID-19, the BELA may not have been performed due to the inability to take photographs of the eyelashes.
as §1, with “A Phase III trial was conducted to assess the efficacy and safety of CTP-543 in adult subjects with moderate to severe AA. Approximately” for “Approximately”
The Screening Period lasted up to 28 days prior to initiation of study drug. […] Randomization was stratified by scalp hair loss into 1 of the following 2 categories: 1) partial scalp hair loss (SALT ≥50 and <95), 2) complete or near complete scalp hair loss (SALT ≥95). […]

## [2H]C1([2H])C([C@@H](CC#N)n2cc(-c3ncnc4[nH]ccc34)cn2)C([2H])([2H])C([2H])([2H])C1([2H])[2H] [CTP-543, (R)-3-(4-(7H-pyrrolo[2,3-d]pyrimidin-4-yl)-1H-pyrazol-1-yl)-3-(cyclopentyl-2,2,3,3,4,4,5,5-d8) propanenitrile]
[1]; Week 8, 12 mg BID
  percentage of subjects achieving an absolute SALT score of ≤20: 2.4%
[1]; Week 12, 8 mg BID
  percentage of subjects achieving an absolute SALT score of ≤20: 10.5%
[1]; Week 12, 12 mg BID
  percentage of subjects achieving an absolute SALT score of ≤20: 12.3%
[1]; Week 16, 8 mg BID
  percentage of subjects achieving an absolute SALT score of ≤20: 20.2%
[1]; Week 16, 12 mg BID
  percentage of subjects achieving an absolute SALT score of ≤20: 21.1%
[1]; Week 20, 12 mg BID
  percentage of subjects achieving an absolute SALT score of ≤20: 28.8%
[1]; Week 24, 8 mg BID
  percentage of subjects achieving an absolute SALT score of ≤20: 33%
[1]; Week 24, 12 mg BID
  percentage of subjects achieving an absolute SALT score of ≤20: 38.3%
  percentage of subjects with an absolute SALT score ≤10: 26.7%
[1]; Week 24, complete or near-complete scalp hair loss, 8 mg BID, 31/156
  subjects achieving SALT score ≤20: 20.9%
[1]; Week 24, complete or near-complete scalp hair loss, 8 mg BID, 37/184
  subjects achieving SALT score ≤20: 20.1%
[1]; Week 24, complete or near-complete scalp hair loss, 12 mg BID, 19/79
  subjects achieving SALT score ≤20: 26.0
[1]; Week 24, complete or near-complete scalp hair loss, 12 mg BID, 33/112
  subjects achieving SALT score ≤20: 29.5
[1]; Week 24, partial scalp hair loss at baseline, 8 mg BID, 46/93
  subjects achieving SALT score ≤20: 54.1%
[1]; Week 24, partial scalp hair loss at baseline, 8 mg BID, 57/134
  subjects achieving SALT score ≤20: 42.5%
[1]; Week 24, partial scalp hair loss at baseline, 12 mg BID, 27/48
  subjects achieving SALT score ≤20: 57.4%
[1]; Week 24, partial scalp hair loss at baseline, 12 mg BID, 50/88
  subjects achieving SALT score ≤20: 56.8%
[1]; two Phase 3 trials, THRIVE-AA1 and THRIVE-AA2
  hair regrowth vs placebo: significant improvements in hair regrowth vs placebo
[1]; week 8, 8 mg BID
  percentage of subjects achieving an absolute SALT score of ≤20: 2.9%
[1]; >4 years duration, 12 mg BID, 13/50
  percentages of participants (responders) stratified by duration of current AA episode: 28.9%
[1]; ≤4 years duration, 8 mg BID, 57/157
  percentages of participants (responders) stratified by duration of current AA episode: 38.3%
[1]; ≤4 years duration, 12 mg BID, 33/77
  percentages of participants (responders) stratified by duration of current AA episode: 44.0%
[2]; Week 12, 8 mg BID
  PGI-S, LS mean change from baseline: −1.6
[2]; Week 12, 12 mg BID
  PGI-S, LS mean change from baseline: −1.8
[2]; Week 16, 12 mg BID
  PGI-S, LS mean change from baseline: −2.0
[2]; Week 20, 8 mg BID
  PGI-S, LS mean change from baseline: −2.0
[2]; Week 20, 12 mg BID
  PGI-S, LS mean change from baseline: −2.2
[2]; Week 24, 8 mg BID
  PGI-S, LS mean change from baseline: −2.2
[2]; Week 24, 12 mg BID
  PGI-S, LS mean change from baseline: −2.5
[3]; Week 12, 8 mg BID
  BELA score, LS mean change from baseline: 0.9
[3]; Week 12, 12 mg BID
  BELA score, LS mean change from baseline: 1.0
[3]; Week 24, 8 mg BID
  BELA score, LS mean change from baseline: 1.4
[3]; Week 24, 12 mg BID
  BELA score, LS mean change from baseline: 1.5
